From US20140093525A1, “COMPOSITIONS AND METHODS OF TREATING OPIOID ADDICTION” (Minneapolis Medical Research Foundation, priority 2012, published 2014) come the findings set out here.

One data set deals with Anti-OXY antibodies. In words: Competitive ELISA of serum from animals immunized with OXY(Gly)4-KLH, OXY(Gly)4-OVA as coating antigen. Type of data set: binding, rat. On the procedure:
Because plateau values differed, IC50 values for each inhibitor were calculated based on the percentage of inhibition of the optical density of primary antibodies incubated with saline.
In general terms: In an ELISA, binding on a coated surface is turned into a signal by an enzyme label.

Data set [1] relates to serum antibodies elicited by M-KLH. Put plainly: Competition ELISA of serum from rats vaccinated with M-KLH.
The subject of data set [2] is serum antibodies elicited by OXY-KLH. In words: Competition ELISA of serum from rats vaccinated with OXY-KLH.
Data set [3] deals with Male Holtzman rats. Put plainly: Example 4: thermal nociception (hot plate) after OXY, naltrexone and OXY-KLH vaccine. The class given is in vivo, rat. The protocol:
Male Holtzman rats immunized once every 3 weeks for a total of 3 injections i.p., with 25 μg immunogen in Freund's adjuvant.
Significant differences existed between saline pretreated control rats and rats receiving NLTX. For pharmacokinetic experiments NLTX dose of 0.003 mg/kg was chosen based on MPE %. *p<0.05.

Data set [4] concerns Male Holtzman rats. Put plainly: Example 4: drug distribution studies (OXY in serum and brain). The class given is in vivo, rat. The following applies: pre-treatment with 0.003 mg/kg NLTX; 2.25 mg/kg OXY s.c.
Protocol: Plasma and brain collected at 33 min after behavioral assessment on the hot plate, and measured using gas chromatography coupled to mass spectrometry.
Setting [5] is: relative to OXY, OXY(Gly)4-OVA as ELISA coating antigen.

pIC50: −log10 of the molar value. Like-named read-outs stand apart in the source and are kept apart here. Where a SMILES comes first, the peptide text is derived from it. The star is where a group is joined. X1 = COc1ccc2c3c1OC1C(=NOCC(=O)*)CCC4(O)C(C2)N(C)CCC314 A value given as a limit tells only on which side of the number the result lay.

As for `C=CCN1CC[C@]23c4c5ccc(O)c4O[C@H]2C(=O)CC[C@@]3(O)[C@H]1C5` [Naloxone], in the data set on Anti-OXY antibodies (competitive ELISA, serum from OXY(Gly)4-KLH immunized animals), the “affinity, competition or binding to antibodies (in words)” value (from here on “affinity, competition or binding”) is listed as “substantially lower”. In addition, the “Cross-Reactivity (%)” value with Anti-OXY antibodies (setting [5]) turned out to be 1.2%.
On to tetraglycine [(Gly)4], for which the “affinity, competition or binding” value with Anti-OXY antibodies is reported as “no measurable competition or binding”. The “relative affinity of antiserum / cross-reactivity (in words)” value in data set [1] is listed as “negligible”; in data set [2], “negligible cross-reactivity”.
What is called pIC50 is the negative decadic logarithm of the IC50, by convention in mol/L. `CN1CC[C@]23c4c5ccc(O)c4O[C@H]2C(=O)CC[C@@]3(O)[C@H]1C5` [Oxymorphone]: in the data set with Anti-OXY antibodies, the “Cross-Reactivity (%)” value was found to be 63% and the pIC50 was 7.52. For the same compound, the “relative affinity of antiserum / cross-reactivity (in words)” value in data set [2] is on record as “high relative affinities”.
For the compound `CC(=O)Oc1ccc2c3c1O[C@H]1[C@@H](OC(C)=O)C=C[C@H]4[C@@H](C2)N(C)CC[C@@]341` [heroin], the “relative affinity of antiserum / cross-reactivity (in words)” value in data set [1] is reported as “high relative affinities”; in data set [2], “low relative affinity”.
In the case of `CCC(=O)C(CC(C)N(C)C)(c1ccccc1)c1ccccc1` (stereo not drawn) [Methadone], the “affinity, competition or binding” value in the data set on Anti-OXY antibodies is “no measurable binding”.
Consider `COc1ccc2c3c1O[C@H]1C(=O)CC[C@@]4(O)[C@@H](C2)N(C)CC[C@]314` [OXY, Oxycodone], for which, in the data set on Anti-OXY antibodies, the “Cross-Reactivity (%)” value is given as 100%; the pIC50 is 7.77; the “affinity, competition or binding” value is recorded as “high affinities”.
With `CN1CC[C@]23c4c5ccc(O)c4O[C@H]2[C@@H](O)C=C[C@H]3[C@H]1C5` [Morphine], in the data set on Anti-OXY antibodies, the “Cross-Reactivity (%)” value is 0.1% and the “affinity, competition or binding” value was “substantially lower”.
In the case of `COc1ccc2c3c1O[C@H]1C(=O)CC[C@H]4[C@@H](C2)N(C)CC[C@]314` [Hydrocodone], in the data set with Anti-OXY antibodies, the “Cross-Reactivity (%)” value turned out to be 0.2%; the pIC50 is 5.00; the “affinity, competition or binding” value was “substantially lower”. The “relative affinity of antiserum / cross-reactivity (in words)” value in data set [1] is given as “relatively low IC50 values”. For the same compound, the “relative affinity of antiserum / cross-reactivity (in words)” value in data set [2] is listed as “relatively low IC50 values”.
As to `COc1ccc2c3c1OC1C(=NOCC(=O)NCC(=O)NCC(=O)NCC(=O)NCC(=O)O)CCC4(O)C(C2)N(C)CCC314` (stereo not drawn) [OXY(Gly)4] (X1-GGGG-OH), in the data set on Anti-OXY antibodies, the “Cross-Reactivity (%)” value is over 100%; the pIC50 is 8.52; the “affinity, competition or binding” value is “high affinities”.
Take `O=C1CC[C@@]2(O)[C@H]3Cc4ccc(O)c5c4[C@@]2(CCN3CC2CC2)[C@H]1O5` [Naltrexone]: the “affinity, competition or binding” value in the data set on Anti-OXY antibodies was “substantially lower”. Besides, the negative logarithm of the IC50 (pIC50) in the data set with Anti-OXY antibodies (competitive binding, OXY(Gly)4-OVA as ELISA coating antigen) is 5.30. The “Cross-Reactivity (%)” value with Anti-OXY antibodies (setting [5]) turned out to be 0.4%. Also, the “effect on acute behavioral effects of OXY, thermal nociception (in words)” value with Male Holtzman rats [3] (NLTX 0.001-0.01 mg/kg s.c. 15 min prior to 2.25 mg/kg OXY) was “dose-dependently blocks”. For the same compound, the “effect on behavioral tolerance to OXY (in words)” value in the data set on Male Holtzman rats [3] (repeated OXY administration) was “unable to block the effects of tolerance”. The “effect on distribution of OXY in immunized rats (in words)” value in the data set with Male Holtzman rats [4] is “does not alter the distribution of OXY”.
